# Measured values taken from ChEMBL document CHEMBL1201862, “PubChem BioAssay data set” (2004).
# Active and inactive are the calls of the source. Non-standard residues stand in square brackets, D forms with d. Residues, ends and D or L forms follow the SMILES beside them. ξ: configuration not given here. ξLac(3-iPr) = CC(C)CC(O)C(=O)O; NMeV = CN[CH](C(=O)O)C(C)C; NMeA = CN[CH](C)C(=O)O; βAla = NCCC(=O)O
# How the values were obtained:
# [1] = biological target: 26S proteasome non-ATPase regulatory subunit 14 (Homo sapiens, UniProt O00487); test: inhibition of proteasome subunit RPN11 – biochemical, fluorescence polarization, uHTS hits, confirmation (AID 602368); assay type: functional
# [2] = biological target: 72 kDa type IV collagenase (Homo sapiens, UniProt P08253); test: Dose Response validation of uHTS RPN11 inhibitor hits using a MMP-2 Fluorescence assay.; assay type: functional
# Prothrombin = Prothrombin (Bos taurus, UniProt P00735); test: thrombin protease inhibitors – biochemical, fluorescence polarization, uHTS hits, dose response (AID 602369); assay type: functional
# [3] = biological target: T1, Mannose-6-phosphate isomerase (Homo sapiens, UniProt P34949); test: MPI inhibition at elevated mannose 6-phosphate – biochemical, fluorescence intensity, high mannose 6-phosphate, primary screen (AID 1220)
# T1 sequence (P34949 whole entry): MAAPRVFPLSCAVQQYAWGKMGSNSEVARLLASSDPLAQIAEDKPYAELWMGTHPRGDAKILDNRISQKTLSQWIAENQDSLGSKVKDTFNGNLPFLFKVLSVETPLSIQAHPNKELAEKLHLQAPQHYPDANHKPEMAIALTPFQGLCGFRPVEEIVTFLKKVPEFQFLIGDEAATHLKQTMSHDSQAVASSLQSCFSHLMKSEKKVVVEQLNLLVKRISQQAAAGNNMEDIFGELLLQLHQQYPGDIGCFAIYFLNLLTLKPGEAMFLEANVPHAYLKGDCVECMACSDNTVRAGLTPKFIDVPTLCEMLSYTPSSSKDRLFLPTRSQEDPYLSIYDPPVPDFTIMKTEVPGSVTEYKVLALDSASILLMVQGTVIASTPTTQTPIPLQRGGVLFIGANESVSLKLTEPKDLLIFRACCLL
# [4] = biological target: T2, High affinity choline transporter 1 (Homo sapiens, UniProt Q9GZV3); test: human choline transporter blockers, potency – cell-based, 5-point CRC, membrane potential dye, dose response (AID 504840); assay type: functional
# T2 sequence (Q9GZV3 whole entry): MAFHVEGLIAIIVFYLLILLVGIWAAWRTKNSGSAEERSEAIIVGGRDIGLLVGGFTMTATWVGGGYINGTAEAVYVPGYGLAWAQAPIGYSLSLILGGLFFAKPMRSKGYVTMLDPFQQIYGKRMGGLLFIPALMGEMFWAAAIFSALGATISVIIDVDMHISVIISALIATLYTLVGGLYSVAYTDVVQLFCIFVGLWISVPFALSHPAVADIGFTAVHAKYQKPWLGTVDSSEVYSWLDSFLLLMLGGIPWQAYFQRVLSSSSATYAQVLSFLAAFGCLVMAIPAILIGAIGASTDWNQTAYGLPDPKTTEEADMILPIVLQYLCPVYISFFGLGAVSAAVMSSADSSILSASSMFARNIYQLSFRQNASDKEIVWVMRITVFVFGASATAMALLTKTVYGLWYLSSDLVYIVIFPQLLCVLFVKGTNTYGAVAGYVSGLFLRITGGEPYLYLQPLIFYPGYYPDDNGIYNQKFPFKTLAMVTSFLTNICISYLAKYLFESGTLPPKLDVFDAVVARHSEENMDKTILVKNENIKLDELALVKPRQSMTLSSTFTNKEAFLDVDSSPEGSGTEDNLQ
# [5] = biological target: T3, Rac GTPase-activating protein 1 (Homo sapiens, UniProt Q9H0H5); test: blockers of MgcRacGAP-driven Rac1 GTP hydrolysis – biochemical, ADP Hunter fluorescence, primary and confirmatory, confirmation (AID 624330); assay type: functional
# T3 sequence (Q9H0H5 whole entry): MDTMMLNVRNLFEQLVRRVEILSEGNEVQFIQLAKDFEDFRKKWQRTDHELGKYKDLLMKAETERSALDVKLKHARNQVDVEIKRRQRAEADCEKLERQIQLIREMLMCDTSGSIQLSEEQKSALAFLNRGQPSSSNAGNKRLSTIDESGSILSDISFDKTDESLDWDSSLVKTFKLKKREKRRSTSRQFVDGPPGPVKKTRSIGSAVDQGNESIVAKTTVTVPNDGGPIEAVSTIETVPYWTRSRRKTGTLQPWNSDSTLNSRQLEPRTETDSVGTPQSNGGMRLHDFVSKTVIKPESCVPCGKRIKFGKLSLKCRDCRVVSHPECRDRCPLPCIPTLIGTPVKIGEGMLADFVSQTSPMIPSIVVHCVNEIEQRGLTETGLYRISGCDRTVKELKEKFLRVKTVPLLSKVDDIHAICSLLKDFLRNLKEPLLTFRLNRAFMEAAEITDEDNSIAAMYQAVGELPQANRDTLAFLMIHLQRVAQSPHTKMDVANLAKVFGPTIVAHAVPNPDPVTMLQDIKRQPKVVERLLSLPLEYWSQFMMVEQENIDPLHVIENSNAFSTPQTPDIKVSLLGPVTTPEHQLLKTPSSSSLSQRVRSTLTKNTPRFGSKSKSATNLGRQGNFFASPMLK
# Escherichia coli [6] = test: microbe, parasite or virus in culture
# Escherichia coli [7] = test: microbe, parasite or virus in culture; remark: listed apart in the source
# [8] = reduction of Shn3 3'UTR-driven luciferase in osteoblasts – cell-based, Clone20 osteoblasts, firefly luciferase, cherry-picked, dose response (AID 624132); assay type: functional;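 also: firefly luciferase luminescence from reporter carrying the Shn3 3'UTR in osteoblasts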
# [9] = loss of viability in HepG2 cells – cell-based, CellTiter-Glo, cherry-picked, cytotoxicity control for Shn3 inhibitor project, dose response (AID 624134); assay type: functional
# [10] = non-specific 3'UTR reporter inhibition in Clone20-Shn3RL – cell-based, Renilla luciferase, cherry-picked, counter-screen for Shn3 inhibitor project, dose response (AID 624133); assay type: functional
# [11] = biological target: Induced myeloid leukemia cell differentiation protein Mcl-1 (Homo sapiens, UniProt Q07820); assay type: functional
# Vero [12] = test: cells; assay type: functional, cell-based; conditions: Chlorocebus sabaeus
# Vero [13] = test: cells; assay type: functional; conditions: Chlorocebus sabaeus
# Hexokinase = biological target: T4, Hexokinase (Trypanosoma brucei, UniProt Q38C41); test: Confirmation assay for inhibitors of Trypanosoma brucei hexokinase 1-Analogue-first series. [Related pubchem assays (depositor defined):AID1430, AID1632, AID2516, AID2560, AID2579, AID2600, AID449725, AID492951]; assay type: functional
# T4 sequence (Q38C41 whole entry): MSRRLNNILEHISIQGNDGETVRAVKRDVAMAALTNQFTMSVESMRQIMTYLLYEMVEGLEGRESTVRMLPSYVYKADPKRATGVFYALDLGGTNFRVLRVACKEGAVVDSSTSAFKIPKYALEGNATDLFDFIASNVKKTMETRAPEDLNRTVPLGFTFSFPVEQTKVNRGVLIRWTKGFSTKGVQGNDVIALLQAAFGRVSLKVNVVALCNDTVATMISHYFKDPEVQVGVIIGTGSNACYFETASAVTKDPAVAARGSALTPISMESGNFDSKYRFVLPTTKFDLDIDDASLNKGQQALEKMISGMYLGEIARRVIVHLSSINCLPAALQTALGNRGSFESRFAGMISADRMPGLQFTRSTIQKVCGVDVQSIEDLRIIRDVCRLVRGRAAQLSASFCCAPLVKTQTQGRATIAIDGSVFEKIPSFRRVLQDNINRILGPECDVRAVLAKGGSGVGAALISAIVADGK
# INS1 = test: suppression of NO production in INS-1E cells – cell-based, Griess absorbance, dry powder, dose response (AID 488866); assay type: functional; conditions: Rattus norvegicus
# [14] = biological target: Delta-type opioid receptor (Homo sapiens, UniProt P41143); test: Counterscreen for agonists of heterodimerization of the mu 1 (OPRM1) and delta 1 (OPRD1) opioid receptors: Luminescence-based cell-based high throughput dose response assay to identify agonists of OPRD1 homodimerization. [Related pubchem assays (depositor defined):AID504326, AID504355, AID504692, AID504904, AID504905]; assay type: functional
# Mu-type opioid receptor = Mu-type opioid receptor (Homo sapiens, UniProt P35372); test: Counterscreen for agonists of heterodimerization of the mu 1 (OPRM1) and delta 1 (OPRD1) opioid receptors: Luminescence-based cell-based high throughput dose response assay to identify agonists of OPRM1 homodimerization.; assay type: functional;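 also: U2OS cells expressing OPRM1 and beta-arrestin as split beta-galactosidase partners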
# [15] = biological target: 5-hydroxytryptamine receptor 5A (Homo sapiens, UniProt P47898); test: Counterscreen for agonists of OPRM1-OPRD1 heterodimerization: luminescence-based cell-based high throughput dose response assay to identify agonists of 5-hydroxytryptamine (serotonin) 5A receptor (HTR5A). [Related pubchem assays (depositor defined):AID504326, AID504355, AID504692, AID504904, AID504905]; assay type: functional
# [16] = biological target: T5, DNA repair protein RAD52 homolog (Homo sapiens, UniProt P43351); assay type: functional, biochemical
# T5 sequence (P43351 whole entry): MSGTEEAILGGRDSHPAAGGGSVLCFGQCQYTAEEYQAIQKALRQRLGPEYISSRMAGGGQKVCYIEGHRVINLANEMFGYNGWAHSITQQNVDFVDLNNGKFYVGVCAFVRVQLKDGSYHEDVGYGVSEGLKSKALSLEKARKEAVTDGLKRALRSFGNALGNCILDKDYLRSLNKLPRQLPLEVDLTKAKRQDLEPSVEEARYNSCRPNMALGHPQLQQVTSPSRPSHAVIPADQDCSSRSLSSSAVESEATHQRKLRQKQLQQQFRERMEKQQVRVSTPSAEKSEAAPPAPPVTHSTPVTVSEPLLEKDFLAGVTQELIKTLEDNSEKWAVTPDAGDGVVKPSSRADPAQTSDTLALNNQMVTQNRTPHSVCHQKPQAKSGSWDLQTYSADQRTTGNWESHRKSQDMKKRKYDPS
# Cytochrome P450 3A4 = Cytochrome P450 3A4 (Homo sapiens, UniProt P08684); conditions: Potency;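 also: confirmatory qHTS run detecting inhibitors and substrates of CYP3A4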
# Cytochrome P450 3A4, sequence (P08684 whole entry): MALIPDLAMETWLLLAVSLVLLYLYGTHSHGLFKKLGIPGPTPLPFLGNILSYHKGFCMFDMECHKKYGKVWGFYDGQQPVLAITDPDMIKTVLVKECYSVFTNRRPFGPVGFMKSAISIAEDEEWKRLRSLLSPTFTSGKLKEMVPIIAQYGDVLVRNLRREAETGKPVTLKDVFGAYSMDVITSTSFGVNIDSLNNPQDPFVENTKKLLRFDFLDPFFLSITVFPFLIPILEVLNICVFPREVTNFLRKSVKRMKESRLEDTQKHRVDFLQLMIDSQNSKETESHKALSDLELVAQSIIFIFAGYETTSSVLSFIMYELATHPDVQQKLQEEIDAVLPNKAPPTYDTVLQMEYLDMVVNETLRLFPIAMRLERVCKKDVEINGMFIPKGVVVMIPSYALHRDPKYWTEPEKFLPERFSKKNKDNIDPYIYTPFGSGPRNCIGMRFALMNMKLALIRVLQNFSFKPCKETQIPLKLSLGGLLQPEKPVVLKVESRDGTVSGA
# 26S proteasome non-ATPase regulatory subunit 14, sequence (O00487 whole entry): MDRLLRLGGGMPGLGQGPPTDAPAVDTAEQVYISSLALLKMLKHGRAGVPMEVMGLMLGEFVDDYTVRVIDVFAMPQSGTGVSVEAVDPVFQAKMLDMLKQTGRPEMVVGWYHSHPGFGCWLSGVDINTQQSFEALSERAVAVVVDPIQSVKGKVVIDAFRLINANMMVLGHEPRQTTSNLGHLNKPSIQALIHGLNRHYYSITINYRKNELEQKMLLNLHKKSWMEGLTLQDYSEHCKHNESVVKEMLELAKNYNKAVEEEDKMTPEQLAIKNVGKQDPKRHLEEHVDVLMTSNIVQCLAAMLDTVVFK
# 72 kDa type IV collagenase, sequence (P08253 whole entry): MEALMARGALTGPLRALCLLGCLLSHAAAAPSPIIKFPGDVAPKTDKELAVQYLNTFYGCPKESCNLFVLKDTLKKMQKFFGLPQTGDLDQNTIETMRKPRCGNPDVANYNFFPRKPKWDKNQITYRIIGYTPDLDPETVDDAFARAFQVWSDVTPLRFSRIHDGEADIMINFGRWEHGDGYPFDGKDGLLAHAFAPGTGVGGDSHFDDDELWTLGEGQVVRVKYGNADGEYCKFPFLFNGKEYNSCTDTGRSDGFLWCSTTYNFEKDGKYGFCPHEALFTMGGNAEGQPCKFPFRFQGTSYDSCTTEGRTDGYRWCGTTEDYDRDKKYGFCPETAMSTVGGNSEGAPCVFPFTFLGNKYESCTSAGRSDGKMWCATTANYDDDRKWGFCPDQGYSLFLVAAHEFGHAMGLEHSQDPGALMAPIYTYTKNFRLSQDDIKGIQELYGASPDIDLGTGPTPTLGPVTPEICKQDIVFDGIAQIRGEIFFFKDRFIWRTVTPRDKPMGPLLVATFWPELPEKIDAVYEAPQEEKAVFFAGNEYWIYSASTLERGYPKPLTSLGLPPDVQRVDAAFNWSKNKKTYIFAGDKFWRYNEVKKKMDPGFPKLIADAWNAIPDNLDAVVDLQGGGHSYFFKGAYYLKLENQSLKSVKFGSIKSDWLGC
# Mu-type opioid receptor, sequence (P35372 whole entry): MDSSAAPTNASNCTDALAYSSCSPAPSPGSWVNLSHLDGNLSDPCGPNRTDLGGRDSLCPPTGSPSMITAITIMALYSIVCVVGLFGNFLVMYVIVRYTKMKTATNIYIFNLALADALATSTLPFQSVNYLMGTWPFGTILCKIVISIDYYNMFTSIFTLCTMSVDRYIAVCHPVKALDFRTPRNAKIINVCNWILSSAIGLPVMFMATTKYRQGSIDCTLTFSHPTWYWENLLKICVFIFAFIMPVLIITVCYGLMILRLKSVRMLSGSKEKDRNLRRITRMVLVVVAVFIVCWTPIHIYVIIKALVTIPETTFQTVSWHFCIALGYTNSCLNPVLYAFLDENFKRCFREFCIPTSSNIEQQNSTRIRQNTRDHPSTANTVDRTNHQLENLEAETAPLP
# Delta-type opioid receptor, sequence (P41143 whole entry): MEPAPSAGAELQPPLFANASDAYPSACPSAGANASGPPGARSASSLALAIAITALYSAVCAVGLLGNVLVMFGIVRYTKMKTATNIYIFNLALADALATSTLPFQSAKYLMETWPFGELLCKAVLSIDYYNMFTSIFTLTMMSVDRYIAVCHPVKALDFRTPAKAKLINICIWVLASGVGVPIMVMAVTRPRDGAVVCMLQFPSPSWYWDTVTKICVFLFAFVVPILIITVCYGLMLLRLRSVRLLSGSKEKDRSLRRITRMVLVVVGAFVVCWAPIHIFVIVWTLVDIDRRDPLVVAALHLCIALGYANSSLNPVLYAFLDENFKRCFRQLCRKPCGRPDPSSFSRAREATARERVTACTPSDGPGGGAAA
# 5-hydroxytryptamine receptor 5A, sequence (P47898 whole entry): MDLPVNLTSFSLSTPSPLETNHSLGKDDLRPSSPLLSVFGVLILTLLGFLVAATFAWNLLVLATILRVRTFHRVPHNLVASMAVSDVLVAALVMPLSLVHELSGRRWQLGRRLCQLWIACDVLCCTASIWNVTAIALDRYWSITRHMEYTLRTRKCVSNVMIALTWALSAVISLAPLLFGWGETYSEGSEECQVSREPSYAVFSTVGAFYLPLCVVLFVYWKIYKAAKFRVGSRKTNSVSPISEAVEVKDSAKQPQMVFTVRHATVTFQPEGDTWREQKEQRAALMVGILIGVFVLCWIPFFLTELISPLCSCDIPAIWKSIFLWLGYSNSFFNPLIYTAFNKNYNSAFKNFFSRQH
# Induced myeloid leukemia cell differentiation protein Mcl-1, sequence (Q07820 whole entry): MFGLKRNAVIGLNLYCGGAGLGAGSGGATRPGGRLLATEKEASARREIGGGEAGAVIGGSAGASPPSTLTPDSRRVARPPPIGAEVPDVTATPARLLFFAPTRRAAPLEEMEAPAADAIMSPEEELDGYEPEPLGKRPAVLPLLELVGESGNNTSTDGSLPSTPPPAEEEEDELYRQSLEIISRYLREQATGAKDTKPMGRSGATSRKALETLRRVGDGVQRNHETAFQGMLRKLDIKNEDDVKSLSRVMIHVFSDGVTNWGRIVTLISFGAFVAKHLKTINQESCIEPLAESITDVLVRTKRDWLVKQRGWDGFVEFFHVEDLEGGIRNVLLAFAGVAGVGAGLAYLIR
compound,measurement,setting,value
Cc1sc2nc(CSc3nnc(Cc4cccs4)n3C3CCCCC3)[nH]c(=O)c2c1C,IC50,[1],15.5 µM (active)
same,IC50,[2],> 100 µM (inactive)
same,IC50,Prothrombin,21.5 µM (active)
COc1cccc(CNc2ccc(N3CCCCC3)cc2)c1OC,IC50,[3],> 50 µM (not active)
same,IC50,[4],11.5 µM (active)
same,IC50,[5],5.96 µM (active)
O=C(Nc1cccnc1)c1cccc(-c2cc3ccccc3oc2=O)c1,IC50,[1],9.88 µM (active)
same,IC50,[2],> 100 µM (inactive)
same,IC50,Prothrombin,53.8 µM (active)
CCOc1cccc2sc(N(CCCN(C)C)C(=O)c3ccc(S(=O)(=O)N4CCCCCC4)cc3)nc12,AC50,Escherichia coli [6],19.6 µM (active)
same,AC50,Escherichia coli [7],> 380 µM (inactive)
Cc1ccc(-n2nnnc2-c2cnoc2-c2cccc(F)c2)cc1,AC50,Escherichia coli [6],24.5 µM (active)
same,AC50,Escherichia coli [7],126 µM (active)
CCN(CC)S(=O)(=O)c1cc(NC(=O)C2CCN(c3ncnc4sc(C)c(C)c34)CC2)ccc1Cl,AC50,[8],5.08 µM (active)
same,AC50,[9],7.1 µM (active)
same,AC50,[10],10.6 µM (active)
Cc1ccc(-c2nnc(N3CC(C)OC(C)C3)c3ccccc23)cc1 (stereo unspecified),IC50,[4],17.4 µM (active)
CCN=c1ccc(Br)cc(C(=O)/C=C/c2ccc(Cl)cc2Cl)c1O,IC50,[11],3.71 µM (active)
same,IC50,Vero [12],11.6 µM (active)
same,CC50,Vero [13],11.1 µM (active)
Cc1ccc(C(=O)COC(=O)c2cc(O)nc3ccccc23)cc1C,IC50,[1],22.3 µM (active)
same,IC50,[2],> 100 µM (inactive)
same,IC50,Prothrombin,> 100 µM (inactive)
COc1ccccc1C1N(c2ccc(Cl)cc2)C(=O)C2CCCN21 (stereo unspecified),IC50,Vero [12],> 25 µM (active)
CCN=C(S)NCCN1CCOCC1,AC50,Escherichia coli [6],24.7 µM (active)
O=c1c2ccccc2[s+]([O-])n1-c1cccc(F)c1 (stereo unspecified),IC50,Hexokinase,> 25 µM (inactive)
COc1ccc(C(=O)Nc2cc(F)ccc2C(=O)O)cc1,IC50,Hexokinase,24.8 µM (active)
COc1ccc2sn(-c3ccccc3)c(=O)c2c1,IC50,Hexokinase,3.22 µM (active)
C[C@@H]1CN([C@@H](C)CO)C(=O)c2cccc(NC(=O)Nc3cccc4ccccc34)c2O[C@H]1CN(C)S(=O)(=O)c1ccc(-c2ccccc2)cc1,AC50,INS1,> 195 µM (inactive)
COc1ccc(S(=O)(=O)N(C)C[C@@H]2Oc3c(NC(=O)Nc4cccc(C(F)(F)F)c4)cccc3C(=O)N([C@@H](C)CO)C[C@H]2C)cc1,AC50,INS1,134 µM (active)
O=C1CCCC2=C1CC(C(=O)OCc1ccccc1)C(=O)N2Cc1ccccc1 (stereo unspecified),AC50,Escherichia coli [7],13.8 µM (active)
CC(=O)C1CCC2C3CC=C4CC(SC(=N)N)CCC4(C)C3CCC12C (stereo unspecified),EC50,[14],> 10.3 µM (inactive)
same,EC50,Mu-type opioid receptor,> 92.4 µM (inactive)
same,EC50,[15],> 92.4 µM (inactive)
same,AC50,[16],7.48 µM (active)
CCC(C)C1NC(=O)C2CCCN2C(=O)C(CC(C)C)OC(=O)CCNC(=O)C(C)N(C)C(=O)C(C(C)C)N(C)C1=O (stereo unspecified) (cyclo([ξLac(3-iPr)]PI[NMeV][NMeA][βAla]); configuration not given here),IC50,Vero [12],8.21 µM (active)
same,CC50,Vero [13],> 25 µM (active)
O=C(/C=C/c1ccc(O)c(O)c1)OCCc1ccccc1 [CAFFEIC ACID PHENETHYL ESTER],AC50,[8],0.877 µM (active)
same,AC50,[9],> 70 µM (inactive)
same,AC50,[10],1.11 µM (active)
same,AC50,Cytochrome P450 3A4,31.6 µM (inconclusive)
